From publication PMC12517324, “Hyperagonism of a Vitamin D Receptor Agonist/Histone Deacetylase Inhibitor Hybrid Molecule” (Journal of Medicinal Chemistry, 2025)
pIC50: −log10 of the molar value.

Molecular target: HDAC2 (Homo sapiens, UniProt Q92769)
Assay: Inhibition of purified HDAC2, Boc-Lys(Ac)-AMC substrate
Assay type: biochemical
Set-up: purchased Cayman Chemical
Conditions: 1 h 37 °C

HDAC2, sequence (Q92769 whole entry): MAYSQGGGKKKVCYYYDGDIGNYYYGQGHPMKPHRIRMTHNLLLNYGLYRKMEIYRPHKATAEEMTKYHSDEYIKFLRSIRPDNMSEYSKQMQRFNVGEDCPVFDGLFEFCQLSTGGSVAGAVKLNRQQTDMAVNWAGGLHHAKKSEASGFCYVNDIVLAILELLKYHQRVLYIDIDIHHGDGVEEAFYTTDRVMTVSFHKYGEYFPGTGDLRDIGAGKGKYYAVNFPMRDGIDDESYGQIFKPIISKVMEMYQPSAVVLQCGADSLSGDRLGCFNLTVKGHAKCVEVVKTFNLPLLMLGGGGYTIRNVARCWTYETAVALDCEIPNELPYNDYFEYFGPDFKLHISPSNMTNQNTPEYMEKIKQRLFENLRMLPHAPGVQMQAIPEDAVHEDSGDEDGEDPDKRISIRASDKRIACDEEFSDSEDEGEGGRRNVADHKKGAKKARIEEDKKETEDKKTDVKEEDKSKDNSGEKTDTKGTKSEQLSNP

## CCC(CC)(c1ccc(OCCCCCC(=O)NO)cc1)c1ccc(OCC(O)C(C)(C)C)c(C)n1 (stereo not shown) [AM-193]
  pIC50: 5.38
